Laboratory results from patent US7951810B2, “Substituted pyrrolo[2,3-d]pyrimidines as inhibitors of E1 activating enzymes” (Millennium Pharmaceuticals, Inc., priority 2005, dated 2011).

Target: T1, recombinant human NAE enzyme (Homo sapiens, UniProt Q8TBC4)
T1 construct: His (N); made in house; host or cells: Sf9 insect cells (baculovirus, Bac-to-Bac)
T1 sequence (Q8TBC4 1-463): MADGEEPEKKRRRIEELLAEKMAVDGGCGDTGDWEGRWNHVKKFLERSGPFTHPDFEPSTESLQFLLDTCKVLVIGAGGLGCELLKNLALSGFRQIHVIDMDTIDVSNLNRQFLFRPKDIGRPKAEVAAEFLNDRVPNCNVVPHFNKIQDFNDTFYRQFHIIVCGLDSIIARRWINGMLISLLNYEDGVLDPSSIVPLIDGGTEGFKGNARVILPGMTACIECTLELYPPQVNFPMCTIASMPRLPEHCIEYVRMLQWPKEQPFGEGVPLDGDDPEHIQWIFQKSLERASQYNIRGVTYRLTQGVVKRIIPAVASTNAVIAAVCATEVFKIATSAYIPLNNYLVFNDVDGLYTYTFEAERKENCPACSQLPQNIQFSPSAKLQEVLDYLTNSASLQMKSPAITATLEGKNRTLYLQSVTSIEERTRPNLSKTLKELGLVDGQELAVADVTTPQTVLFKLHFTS
T1 sequence (Q13564 1-534 partner): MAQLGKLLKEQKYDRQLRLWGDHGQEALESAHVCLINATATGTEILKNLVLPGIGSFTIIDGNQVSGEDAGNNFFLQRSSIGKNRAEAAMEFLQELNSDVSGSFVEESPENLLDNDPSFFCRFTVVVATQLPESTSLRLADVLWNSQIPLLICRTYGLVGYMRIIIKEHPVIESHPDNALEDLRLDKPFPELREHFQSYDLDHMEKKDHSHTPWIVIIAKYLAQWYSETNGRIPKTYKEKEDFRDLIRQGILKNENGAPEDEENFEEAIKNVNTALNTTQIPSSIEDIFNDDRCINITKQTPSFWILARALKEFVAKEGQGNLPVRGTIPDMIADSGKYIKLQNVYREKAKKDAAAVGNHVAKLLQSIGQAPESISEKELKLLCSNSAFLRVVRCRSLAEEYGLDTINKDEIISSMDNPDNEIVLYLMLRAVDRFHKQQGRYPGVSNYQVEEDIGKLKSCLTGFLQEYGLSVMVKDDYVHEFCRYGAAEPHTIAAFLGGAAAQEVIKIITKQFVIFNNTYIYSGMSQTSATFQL
Assay: Nedd8-Activating Enzyme (NAE) HTRF assay
Assay type: biochemical
Conditions: 20 μM ATP, 90 minutes at 24° C.
Experimental: Following manufacturer instructions, baculoviruses were generated with the Bac-to-Bac Expression System (Invitrogen) for the following proteins: untagged NAEα (APPBP1; NP_003896.1), N-terminally His-tagged NAEβ (UBE1C; NP_003959.3), untagged SAEα (SAE1; NP_005491.1), N-terminally His-tagged SAEβ (UBA2; NP_005490.1), N-terminally His-tagged murine UAE (UBE1X; NP_033483). NAEα/His-NAEβ and SAEα/His-SAEβ complexes were generated by co-infection of Sf9 cells, which were harvested after 48 hours. His-mUAE was generated by single infection of Sf9 cells and harvested after 72 hours. Expressed proteins were purified by affinity chromatography (Ni-NTA agarose, Qiagen) using standard buffers.
Ubc12 (UBE2M; NP_003960.1), Ubc9 (UBE2I; NP_003336.1), Ubc2 (UBE2A; NP_003327.2) were subcloned into pGEX (Pharmacia) and expressed as N-terminally GST tagged fusion proteins in E. coli. Expressed proteins were purified by conventional affinity chromatography using standard buffers.
Nedd8 (NP_006147), Sumo-1 (NP_003343) and Ubiquitin (with optimized codons) were subcloned into pFLAG-2 (Sigma) and expressed as N-terminally Flag tagged fusion proteins in E. coli. Expressed proteins were purified by conventional chromatography using standard buffers.
Nedd8-Activating Enzyme (NAE) HTRF Assay.
The NAE enzymatic reaction totaled 50 μL and contained 50 mM HEPES (pH 7.5), 0.05% BSA, 5 mM MgCl2, 20 μM ATP, 250 μM GSH, 0.01 μM Ubc12-GST, 0.075 μM Nedd8-Flag and 0.28 nM recombinant human NAE enzyme. The enzymatic reaction mixture, with and without compound inhibitor, was incubated at 24° C. for 90 minutes in a 384-well plate before termination with 25 μL of Stop/Detection buffer (0.1M HEPES pH 7.5, 0.05% Tween20, 20 mM EDTA, 410 mM KF, 0.53 nM Europium-Cryptate labeled monoclonal anti-FLAG M2 antibody (CisBio International) and 8.125 μg/mL PHYCOLINK goat anti-GST allophycocyanin (XL-APC) antibody (Prozyme)). After incubation for 3 hours at 24° C., quantification of the FRET was performed on the Analyst™ HT 96.384 (Molecular Devices).

[1] = threshold less than or equal to 100 nM
[2] = threshold less than or equal to 1 μM

| Structure (SMILES) | IC50 [1] [nM] | IC50 [2] [nM] |
| --- | --- | --- |
| COCCc1ncnc2c1ncn2[C@@H]1O[C@H](COS(N)(=O)=O)[C@@H](O)[C@H]1O [Compound I-137, {(2R,3S,4R,5R)-3,4-dihydroxy-5-[6-(2-methoxyethyl)-9H-purin-9-yl]tetrahydrofuran-2-yl}methyl sulfamate] | ≤ 100 | ≤ 1000 |
| C[C@@H](OS(N)(=O)=O)[C@H]1O[C@@H](n2cnc3c(N[C@H]4CCc5ccccc54)ncnc32)[C@H](O)[C@@H]1O [Compound I-58, (R)-1-((2S,3S,4R,5R)-5-(6-((S)-2,3-dihydro-1H-inden-1-ylamino)-9H-purin-9-yl)-3,4-dihydroxy-tetrahydrofuran-2-yl)ethyl sulfamate] | ≤ 100 | ≤ 1000 |
| NS(=O)(=O)NC[C@H]1O[C@@H](n2cnc3c(NCc4ccc(F)cc4)ncnc32)[C@H](O)[C@@H]1O [Compound I-126, N-[((2R,3S,4R,5R)-5-{6-[(4-fluorobenzyl)amino]-9H-purin-9-yl}-3,4-dihydroxytetrahydrofuran-2-yl)methyl]sulfamide] | ≤ 100 | ≤ 1000 |
| Cn1cc(CNc2ncnc3c2ncn3[C@@H]2O[C@H](CNS(N)(=O)=O)[C@@H](O)[C@H]2O)cn1 [Compound I-38, N-{[(2R,3S,4R,5R)-3,4-dihydroxy-5-(6-{[(1-methyl-1H-pyrazol-4-yl)methyl]-amino}-9H-purin-9-yl)tetrahydrofuran-2-yl]methyl}sulfamide] |  | ≤ 1000 |
| NS(=O)(=O)OC[C@H]1O[C@@H](n2cnc3c(N[C@H]4CCc5ccccc54)ncnc32)C[C@@H]1O [Compound I-1, ((2R,3S,5R)-5-{6-[(1S)-2,3-dihydro-1H-inden-1-ylamino]-9H-purin-9-yl}-3-hydroxytetrahydrofuran-2-yl)methyl sulfamate] | ≤ 100 | ≤ 1000 |
